Experimental data published in US10590413B2, “Chiral control” (WAVE LIFE SCIENCES LTD., priority 2012, dated 2020).
Where two headings read alike, the source gives them in different places. Strand notation (5' to 3'): a small letter for the sugar, then the base; units joined by * are phosphorothioate-linked, units joined directly phosphodiester-linked; [ ] holds rarer units or linkages, { } end groups; capitals alone tell only the bases. [Rp] = phosphorothioate linkage, Rp; [Sp] = phosphorothioate linkage, Sp; e = 2'-O-(2-methoxyethyl) (MOE); [5mC] = 5-methylcytosine; d = 2'-deoxy (DNA)

What was measured:
complementary RNA = assay: Thermal denaturation experiment (Tm) of DNA strand with complementary RNA (Example 49); assay type: binding; conditions: duplex with complementary RNA, equimolar 0.5 μM in 1×PBS; first derivative of 254 nm absorbance curve
Protocol: Each DNA strand was mixed with complementary RNA in equimolar concentration of 0.5 μM in 1×PBS. Total 2.5 mL solution was prepared for each duplex and the mixture was heated at 90° C. for 2 min and was allowed to cool down over the course of several hours. The mixtures were then stored at 4° C. for 2 hrs. Absorbance at 254 nm was recorded at an interval of 0.5 min starting the temperature gradient from 15° C. to 90° C. with rise of 0.5° C./minute, using a Perkin Elmer UV-spectrophotometer equipped with a Peltier unit. The 254 nm absorbance was plotted against the temperature and the Tm values were calculated from the respective first derivative of each curve.

[1] = test system: Apolipoprotein B (Apo B) (NM_000384); assay: Apo B gene expression in Hep3B cells after Lipofectamine 2000 transfection, real-time PCR SYBR green (Example 50); assay type: cell-based, Homo Sapiens; conditions: for activity compared to Mipomersen (120) / potency compared to the corresponding stereorandom oligonucleotide mixture (Oligonucleotide 118): from Table E-19 IC50, Hep3B
Protocol: After checking OD all oligonucleotide candidate molecules were diluted to a starting concentration of 20 μM. Multidose forward transfection experiment was setup in 96-well plates using Hep3B cells (ATCC®, Cat. HB-8064™) using Lipofectamine 2000 (Life Technologies, Cat. 11668-019) transfection reagent.
2×10^4 Hep3B cells per well were seeded and incubated for 24 hours at 37° C. in a CO2 incubator in 100 μl of antibiotic free MEM medium (Life Technologies, Cat. 11095098) containing 10% FBS and 1% Glutamax I (Life Technologies, Cat. 35050061). Twelve dilutions were setup in nuclease free water (Table E-16).
For each well, 0.5 μL of Lipofectamine 2000 were mixed with 9.5 μL of Opti MEM I reduced serum medium (Life Technologies, Cat. 31985062) and incubated for 5 minutes. Following incubation, 10 μL of each of the candidates at the reported concentrations was mixed with the diluted Lipofectamine 2000 by gentle pipetting. The mixture was then incubated for 20 minutes at room temperature to allow for complex formation. During this time the cell growth medium was replaced with 80 μL of fresh antibiotic free MEM as previously described. 20 μL of lipid-oligo complex was gently mixed into each well bringing the total volume to 100 μL. The cells were then incubated for 24 hours at 37° C. in a CO2 incubator.
After 24 hour incubation the cell growth medium was removed and RNA was extracted using a Dynabeads mRNA Direct kit (Life Technologies, Cat. 61012) per the instructions provided in the kit manual without modifications. This magnetic Oligo (dT)^25 bead system allows for cost-effective and robust high-throughput poly (A) RNA extraction circumventing DNAse treatment. RNA was eluted in nuclease-free water and stored at −80° C.
10 μL of RNA was used in a 20 μL cDNA synthesis reaction using a High Capacity cDNA Reverse Transcription Kit (Life Technologies, Cat. 4374967) using the kit protocol with RNAse Inhibitor. The reverse transcription was performed in a 96-well format on a C1000 Touch thermal cycler (Biorad, Cat. 185-1196EDU).
Gene expression was measured by quantitative PCR using a LightCycler® 480 SYBR Green I Master (Roche, Cat. 04707516001) on LightCycler 480 Real-Time PCR instrument. Primers for the Homo Sapiens sequences of the target Apolipoprotein B (Apo B) (NM_000384) and endogenous control Glyceralydhyde-3-phosphate dehydrogenase (GAPDH) (NM_002046) were designed and ordered from IDT (Table E-17).
Measurement of the target and endogenous control was performed in separate wells using material from the same cDNA template. SYBR green assay PCR conditions were setup as described in the SYBR Green I Master protocol (Table E-18).
The data is a result of 3 biological replicates. All samples were compared to Naïve untransfected control. The following results were observed when evaluating gene expression by real-time PCR using SYBR green (Table E-19, FIG. 5).

Mouse B Cells = conditions: mean and std. dev. of at least 3 experiments, compared to wells with no added ODN, cited from earlier work
[2] = Apo B mRNA, Hep3B cells, 24 hours after transfection, read-out: IC50 (nM) (rounded up to single digit)
[3] = Complete IC50 data evaluated by SYBR green, Apo B mRNA, Hep3B cells, 24 hours, 3 biological replicates, read-out: IC50

Substance | Tm (° C.) ± 0.5 (complementary RNA) [°C] | IC50 [1, 2] [nM] | IC50 [1, 3] [nM] | activity compared to Mipomersen (120) [1] | potency compared to the corresponding stereorandom oligonucleotide mixture (Oligonucleotide 118) [1] | IC50 (nM) (rounded up to single digit) ([1]; Apo B mRNA, Hep3B cells, 24 hours after transfection) | Stimulation Index, 3H Uridine (Mouse B Cells; US 6,239,116 Table 1) | Stimulation Index, IgM Production (Mouse B Cells; US 6,239,116 Table 1) | Stimulation Index, 3H Uridine (Mouse B Cells)
(Sp, Rp, Rp, Sp, Rp, Rp, Sp, Rp, Rp, Sp, Rp, Rp, Sp, Rp, Rp, Sp, Rp, Rp, Sp)-d[GsCsCsTsCsAsGsTsCsTsGsCsTsTsCsGsCsAsCsC] (DNA GCCTCAGTCTGCTTCGCACC; DNA, linkages [Sp][Rp][Rp][Sp][Rp][Rp][Sp][Rp][Rp][Sp][Rp][Rp][Sp][Rp][Rp][Sp][Rp][Rp][Sp] (s phosphorothioate, o phosphodiester), methylation of C not given here) [Oligonucleotide 115] | 65.2 | 3 | 2.69 | more active | more potent | – | – | – | –
(Rp, Sp, Sp, Sp, Sp, Sp, Sp, Sp, Sp, Sp, Sp, Sp, Sp, Sp, Sp, Sp, Sp, Sp, Rp)-d[GsCsCsTsCsAsGsTsCsTsGsCsTsTsCsGsCsAsCsC] (DNA GCCTCAGTCTGCTTCGCACC; DNA, linkages [Rp]1 [Sp]17 [Rp]1 (s phosphorothioate, o phosphodiester), methylation of C not given here) [Oligonucleotide 106] | 61.8 | 4 | ~3.85 | more active | – | – | – | – | –
Mipomersen (DNA eG*e[5mC]*e[5mC]*eT*e[5mC]*dA*dG*dT*d[5mC]*dT*dG*d[5mC]*dT*dT*d[5mC]*eG*e[5mC]*eA*e[5mC]*e[5mC]) [Oligonucleotide 120, "Mipomersen, which is a stereorandom oligonucleotide mixture (Oligonucleotides 104, 105 ... compared to 120)", reference compound] | 65.3 | 4 | 4.39 | – | – | – | – | – | –
(Sp, Rp, Sp, Rp, Sp, Rp, Sp, Rp, Sp, Rp, Sp, Rp, Sp, Rp, Sp, Rp, Sp, Rp, Sp)-d[GsCsCsTsCsAsGsTsCsTsGsCsTsTsCsGsCsAsCsC] (DNA GCCTCAGTCTGCTTCGCACC; DNA, linkages [Sp][Rp][Sp][Rp][Sp][Rp][Sp][Rp][Sp][Rp][Sp][Rp][Sp][Rp][Sp][Rp][Sp][Rp][Sp] (s phosphorothioate, o phosphodiester), methylation of C not given here) [Oligonucleotide 108] | 64.8 | 3 | 3.19 | – | – | – | – | – | –
119 (DNA GCCTCAGTCTGCTTCGCACC; unmodified DNA) [Oligonucleotide 119] | 73.4 | – | – | – | – | Not detected | – | – | –
(Rp, Rp, Sp, Rp, Rp, Sp, Rp, Rp, Sp, Rp, Rp, Sp, Rp, Rp, Sp, Rp, Rp, Sp, Rp)-d[GsCsCsTsCsAsGsTsCsTsGsCsTsTsCsGsCsAsCsC] (DNA GCCTCAGTCTGCTTCGCACC; DNA, linkages [Rp][Rp][Sp][Rp][Rp][Sp][Rp][Rp][Sp][Rp][Rp][Sp][Rp][Rp][Sp][Rp][Rp][Sp][Rp] (s phosphorothioate, o phosphodiester), methylation of C not given here) [Oligonucleotide 114] | 65.2 | 5 | 5.23 | – | – | – | – | – | –
(Sp, Sp, Sp, Rp, Rp, Rp, Rp, Rp, Rp, Rp, Rp, Rp, Rp, Rp, Rp, Rp, Sp, S, Sp)d[GsCsCsTsCsAsGsTsCsTsGsCsTsTsCsGsCsAsCsC] (DNA GCCTCAGTCTGCTTCGCACC; DNA, linkages [Sp]3 [Rp]13 [Sp]3 (s phosphorothioate, o phosphodiester), methylation of C not given here) [Oligonucleotide 109] | 65.8 | 2 | 1.72 | more active | more potent | – | – | – | –
(Sp, Sp, Sp, Sp, Sp, Rp, Rp, Rp, Rp, Rp, Rp, Rp, Rp, Rp, Sp, Sp, Sp, Sp, Sp)-d[GsCsCsTsCsAsGsTsCsTsGsCsTsTsCsGsCsAsCsC] (DNA GCCTCAGTCTGCTTCGCACC; DNA, linkages [Sp]5 [Rp]9 [Sp]5 (s phosphorothioate, o phosphodiester), methylation of C not given here) [Oligonucleotide 104] | 63.5 | 4 | 4.29 | more active | – | – | – | – | –
(Rp, Rp, Rp, Sp, Sp, Sp, Sp, Sp, Sp, Sp, Sp, Sp, Sp, Sp, Sp, Sp, Rp, Rp, Rp)-d[GsCsCsTsCsAsGsTsCsTsGsCsTsTsCsGsCsAsCsC] (DNA GCCTCAGTCTGCTTCGCACC; DNA, linkages [Rp]3 [Sp]13 [Rp]3 (s phosphorothioate, o phosphodiester), methylation of C not given here) [Oligonucleotide 110] | 62.9 | 7 | 7.44 | – | – | – | – | – | –
(Rp, Sp, Rp, Sp, Rp, Sp, Rp, Sp, Rp, Sp, Rp, Sp, Rp, Sp, Rp, Sp, Rp, Sp, Rp)-d[GsCsCsTsCsAsGsTsCsTsGsCsTsTsCsGsCsAsCsC] (DNA GCCTCAGTCTGCTTCGCACC; DNA, linkages [Rp][Sp][Rp][Sp][Rp][Sp][Rp][Sp][Rp][Sp][Rp][Sp][Rp][Sp][Rp][Sp][Rp][Sp][Rp] (s phosphorothioate, o phosphodiester), methylation of C not given here) [Oligonucleotide 107] | 64.5 | 4 | ~4.18 | more active | – | – | – | – | –
(Rp, Rp, Rp, Rp, Rp, Sp, Sp, Sp, Sp, Sp, Sp, Sp, Sp, Sp, Rp, Rp, Rp, Rp, Rp)-d[GsCsCsTsCsAsGsTsCsTsGsCsTsTsCsGsCsAsCsC] (DNA GCCTCAGTCTGCTTCGCACC; DNA, linkages [Rp]5 [Sp]9 [Rp]5 (s phosphorothioate, o phosphodiester), methylation of C not given here) [Oligonucleotide 103] | 63.4 | 6 | 5.73 | – | – | – | 6.1 ± 1.4 | 19.2 ± 5.2 | 6.1 ± 1.4
(Rp, Sp, Rp, Rp, Sp, Rp, Rp, Sp, Rp, Rp, Sp, Rp, Rp, Sp, Rp, Rp, Sp, Rp, Rp)d[GsCsCsTsCsAsGsTsCsTsGsCsTsTsCsGsCsAsCsC] (DNA dG[Rp]dC[Sp]dC[Rp]dT[Rp]dC[Sp]dA[Rp]dG[Rp]dT[Sp]dC[Rp]dT[Rp]dG[Sp]dC[Rp]dT[Rp]dT[Sp]dC[Rp]dG[Rp]dC[Sp]dA[Rp]dC[Rp]dC) [Oligonucleotide 116] | 64.8 | 2 | 1.92 | more active | more potent | – | – | – | –
(Sp, Rp, Rp, Rp, Rp, Rp, Rp, Rp, Rp, Rp, Rp, Rp, Rp, Rp, Rp, Rp, Rp, Rp, Sp)-d[GsCsCsTsCsAsGsTsCsTsGsCsTsTsCsGsCsAsCsC] (DNA GCCTCAGTCTGCTTCGCACC; DNA, linkages [Sp]1 [Rp]17 [Sp]1 (s phosphorothioate, o phosphodiester), methylation of C not given here) [Oligonucleotide 105] | 66.5 | 3 | 2.88 | more active | more potent | – | – | – | –
